According to ChEMBL document CHEMBL1152934, “Quinazolindione derivatives as potent 5-HT3A receptor antagonists” (Bioorg Med Chem, 2009):

The compounds below were run against Voltage-dependent T-type calcium channel subunit alpha-1G (Homo sapiens, UniProt O43497) (assay: Antagonist activity against T-type calcium channel alpha1G).
Type: functional

Voltage-dependent T-type calcium channel subunit alpha-1G, sequence (O43497 whole entry): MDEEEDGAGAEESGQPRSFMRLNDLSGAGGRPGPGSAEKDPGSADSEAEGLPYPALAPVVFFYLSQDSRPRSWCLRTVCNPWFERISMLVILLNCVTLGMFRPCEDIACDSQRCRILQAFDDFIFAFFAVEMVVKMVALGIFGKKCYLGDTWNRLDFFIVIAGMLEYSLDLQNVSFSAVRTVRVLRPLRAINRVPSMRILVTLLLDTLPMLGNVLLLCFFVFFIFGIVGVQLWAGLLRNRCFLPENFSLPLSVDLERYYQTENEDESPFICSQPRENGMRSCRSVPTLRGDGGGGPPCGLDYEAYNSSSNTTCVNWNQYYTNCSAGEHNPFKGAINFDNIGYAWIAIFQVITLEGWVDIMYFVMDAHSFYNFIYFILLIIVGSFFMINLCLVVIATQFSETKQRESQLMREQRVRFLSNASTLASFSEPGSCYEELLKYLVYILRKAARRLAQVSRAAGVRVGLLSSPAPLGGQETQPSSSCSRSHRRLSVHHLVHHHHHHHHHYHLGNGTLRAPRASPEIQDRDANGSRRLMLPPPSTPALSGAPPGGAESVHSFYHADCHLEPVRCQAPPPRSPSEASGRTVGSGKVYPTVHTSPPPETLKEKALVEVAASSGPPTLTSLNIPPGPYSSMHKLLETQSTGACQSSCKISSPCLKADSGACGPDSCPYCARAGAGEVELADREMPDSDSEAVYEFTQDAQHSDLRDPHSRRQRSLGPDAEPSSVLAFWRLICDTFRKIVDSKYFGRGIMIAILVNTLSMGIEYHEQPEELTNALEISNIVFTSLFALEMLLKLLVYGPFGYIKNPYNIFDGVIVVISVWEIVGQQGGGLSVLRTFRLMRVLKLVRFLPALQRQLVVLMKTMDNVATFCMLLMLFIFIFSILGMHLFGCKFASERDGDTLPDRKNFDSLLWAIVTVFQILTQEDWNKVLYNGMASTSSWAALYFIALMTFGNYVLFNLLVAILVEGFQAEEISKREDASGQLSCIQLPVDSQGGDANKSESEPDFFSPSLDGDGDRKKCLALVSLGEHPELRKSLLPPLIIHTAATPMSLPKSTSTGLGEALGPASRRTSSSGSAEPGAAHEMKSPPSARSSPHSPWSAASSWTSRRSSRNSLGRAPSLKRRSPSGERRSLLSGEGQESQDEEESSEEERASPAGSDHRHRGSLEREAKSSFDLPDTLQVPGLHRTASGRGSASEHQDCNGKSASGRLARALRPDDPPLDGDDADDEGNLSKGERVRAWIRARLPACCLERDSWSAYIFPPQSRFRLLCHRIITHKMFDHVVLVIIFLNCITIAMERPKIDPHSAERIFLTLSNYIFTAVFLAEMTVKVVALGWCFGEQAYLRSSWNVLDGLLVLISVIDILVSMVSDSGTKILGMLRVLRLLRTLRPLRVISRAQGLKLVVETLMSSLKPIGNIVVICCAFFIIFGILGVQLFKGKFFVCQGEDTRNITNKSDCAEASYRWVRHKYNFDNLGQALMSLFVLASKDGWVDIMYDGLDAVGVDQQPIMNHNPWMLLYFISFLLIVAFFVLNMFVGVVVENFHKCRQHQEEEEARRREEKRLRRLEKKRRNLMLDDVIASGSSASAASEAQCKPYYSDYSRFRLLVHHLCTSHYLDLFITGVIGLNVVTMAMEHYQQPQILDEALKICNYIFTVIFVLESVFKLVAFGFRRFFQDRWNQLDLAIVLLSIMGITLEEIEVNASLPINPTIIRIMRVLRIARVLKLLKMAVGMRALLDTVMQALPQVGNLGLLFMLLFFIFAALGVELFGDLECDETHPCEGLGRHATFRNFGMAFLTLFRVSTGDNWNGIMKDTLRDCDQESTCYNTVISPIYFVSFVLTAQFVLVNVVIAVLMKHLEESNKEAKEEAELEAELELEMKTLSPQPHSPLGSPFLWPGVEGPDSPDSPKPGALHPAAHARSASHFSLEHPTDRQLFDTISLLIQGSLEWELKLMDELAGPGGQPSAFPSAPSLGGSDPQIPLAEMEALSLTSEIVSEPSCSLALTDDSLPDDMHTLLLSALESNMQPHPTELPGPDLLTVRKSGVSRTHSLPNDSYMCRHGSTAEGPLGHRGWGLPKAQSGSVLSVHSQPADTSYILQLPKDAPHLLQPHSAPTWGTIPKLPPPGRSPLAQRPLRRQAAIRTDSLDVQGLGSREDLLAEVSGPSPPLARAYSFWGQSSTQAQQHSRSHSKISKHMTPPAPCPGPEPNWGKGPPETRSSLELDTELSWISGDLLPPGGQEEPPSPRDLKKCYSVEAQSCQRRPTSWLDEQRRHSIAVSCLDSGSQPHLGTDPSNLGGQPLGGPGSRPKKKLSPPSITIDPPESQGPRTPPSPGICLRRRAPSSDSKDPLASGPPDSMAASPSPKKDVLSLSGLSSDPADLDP

| Structure (SMILES) | IC50 |
| --- | --- |
| CC1CCCCN1CCNC(=O)c1ccc2c(=O)n(Cc3ccc(Cl)cc3)c(=O)[nH]c2c1 (stereo not drawn) | Not Active |
| COc1ccc(Cn2c(=O)[nH]c3cc(C(=O)NCCN4CCCCC4)ccc3c2=O)cc1 | Not Active |
| COc1cccc(Cn2c(=O)[nH]c3cc(C(=O)NCCN4CCCCC4)ccc3c2=O)c1 | Not Active |
| O=C(NCCN1CCOCC1)c1ccc2c(=O)n(Cc3ccc(Cl)cc3)c(=O)[nH]c2c1 | Not Active |
| COc1ccccc1Cn1c(=O)[nH]c2cc(C(=O)NCCN3CCCCC3)ccc2c1=O | Not Active |
| CCC1CCCCN1CCCNC(=O)c1ccc2c(=O)n(Cc3ccc(Cl)cc3)c(=O)[nH]c2c1 (stereo not drawn) | Not Active |
| O=C(NCCN1CCOCC1)c1ccc2c(=O)n(-c3ccc(F)cc3)c(=O)[nH]c2c1 | Not Active |
| O=C(NCCN1CCCCC1)c1ccc2c(=O)n(Cc3ccccc3Cl)c(=O)[nH]c2c1 | Not Active |
| CC1CCCCN1CCCNC(=O)c1ccc2c(=O)n(C3CCCCC3)c(=O)[nH]c2c1 (stereo not drawn) | Not Active |
| O=C(NCCN1CCOCC1)c1ccc2c(=O)n(Cc3ccc(F)cc3)c(=O)[nH]c2c1 | Not Active |
| CC1CCCCN1CCCNC(=O)c1ccc2c(=O)n(Cc3ccc(Cl)cc3)c(=O)[nH]c2c1 (stereo not drawn) | Not Active |
| O=C(NCCCN1CCOCC1)c1ccc2c(=O)n(Cc3ccc(Cl)cc3)c(=O)[nH]c2c1 | Not Active |

Further lines, results first:

| IC50 | Structure (SMILES) |
| --- | --- |
| Not Active | O=C(NCCN1CCCCC1)c1ccc2c(=O)n(Cc3ccccc3F)c(=O)[nH]c2c1 |
| Not Active | O=C(NCCN1CCCCC1)c1ccc2c(=O)n(-c3ccc(F)cc3)c(=O)[nH]c2c1 |
| Not Active | COc1ccc(-n2c(=O)[nH]c3cc(C(=O)NCCN4CCCCC4)ccc3c2=O)cc1 |
| Not Active | Cn1c(=O)[nH]c2cc(C(=O)NCCN3CCCCC3)ccc2c1=O |
| Not Active | CCCn1c(=O)[nH]c2cc(C(=O)NCCN3CCCCC3)ccc2c1=O |
| Not Active | O=C(NCCN1CCCCC1)c1ccc2c(=O)n(C3CCCCC3)c(=O)[nH]c2c1 |
